Experimental data as given in patent US10253002B2, “Compounds and methods of treating infections” (Neoculi Pty Ltd., priority 2013, dated 2019).
≈ marks a conversion by molar mass, not a printed value. Where “and” joins values, the source holds several entries; their conditions need not be identical. Equal entries are not always repeated. Where two headings read alike, the source gives them in different places.

Legend:
[1] = Bioassay ranking of the analogues tested; conditions: M + R (MRSA and VRE combined)
Escherichia coli = assay: Broth microdilution MIC, Example 7 (NCL812 and analogues); format: cell-based; conditions: E. coli, 24 hours; for MIC: Escherichia coli, read-out: MIC (μg/ml) at 24 hours E. coli
VRE = assay: as above; format: cell-based, Enterococcus spp.; conditions: for activity against VRE among analogues: MIC testing, two VRE strains; for MIC: Enterococcus; for VRE / MIC: VRE
In short: (§1)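 Turbidity read visually and then at 600 nm defined the MIC (μg/ml), comparing drug-containing wells with a growth-control well lacking antimicrobial. Testing followed the CLSI broth microdilution method, in duplicate, using two strains per organism group.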

MRSA = assay: as above; format: cell-based, Staphylococcus aureus; conditions: for activity against MRSA among analogues: MIC testing, two MRSA strains; for MIC: Staphylococcus aureus; for MRSA / MIC: MRSA
In short: as §1

Pseudomonas aeruginosa = assay: as above; format: cell-based; conditions: for MIC: Pseudomonas aeruginosa, 24 h, read-out: MIC (μg/ml) at 24 hours P. aeruginosa, P. aeruginosa, 24 hours
[2] = test system: Staphylococcus aureus T3-129 / Staphylococcus spp. MK1; assay: Synergy studies, checkerboard method (FIC index); format: cell-based; conditions: Staphylococcus spp. Strain MK1; for FICI: FIC index of antibiotic with NCL812; for Antibiotic MIC With NCL812: antibiotic in combination with NCL812; for Result (interaction with NCL812): antibiotic with NCL812
[3] = VRE 1, 24 hours, duplicate lines per compound
[4] = VRE 2, 24 hours, duplicate lines per compound
[5] = MRSA 1, 24 hours, duplicate lines per compound
[6] = MRSA 2, 24 hours, duplicate lines per compound
[7] = 24 h, read-out: MIC (μg/ml) at 24 hours VRE 1, VRE 1, 24 hours
[8] = 24 h, read-out: MIC (μg/ml) at 24 hours VRE 2, VRE 2, 24 hours
[9] = bioassay ranking, read-out: VRE
[10] = 24 h, read-out: MIC (μg/ml) at 24 hours MRSA 1, MRSA 1, 24 hours
[11] = 24 h, read-out: MIC (μg/ml) at 24 hours MRSA 2, MRSA 2, 24 hours
[12] = bioassay ranking, read-out: MRSA

| Structure (SMILES) | MIC (Escherichia coli) | MIC (VRE; [7]) | MIC (VRE; [8]) | MIC (μg/ml) at 24 hours, VRE 2 (VRE; VRE 2, 24 hours) | MIC (μg/ml) at 24 hours, MRSA 2 (MRSA; MRSA 2, 24 hours) | MIC (MRSA; [10]) | MIC (MRSA; [11]) | MIC (MRSA; [12]) | MIC (Pseudomonas aeruginosa) | MIC (μg/ml) at 24 hours, MRSA 1 (MRSA; MRSA 1, 24 hours) | MIC (μg/ml) at 24 hours, E. coli (Escherichia coli) | MIC (μg/ml) at 24 hours, VRE 1 (VRE; VRE 1, 24 hours) | MIC (μg/ml) at 24 hours, P. aeruginosa (Pseudomonas aeruginosa) | M + R [1] | activity against VRE among analogues (VRE) | activity against MRSA among analogues (MRSA) | MRSA (MRSA; bioassay ranking) | VRE (VRE; bioassay ranking) | other results |
| --- | --- | --- | --- | --- | --- | --- | --- | --- | --- | --- | --- | --- | --- | --- | --- | --- | --- | --- | --- |
| Cl.N=C(N/N=C/c1ccccc1O)N/N=C/c1ccccc1O [NCL107] | – | – | – | – | – | – | – | – | – | – | – | – | – | 46 µg/mL | greatest activity | greatest activity | 12 µg/mL | – | MIC (μg/ml) at 24 hours, E. coli (Escherichia coli; duplicate lines per compound): >128 µg/mL; MIC (μg/ml) at 24 hours, VRE 1 (VRE; [3]): 32 µg/mL; MIC (μg/ml) at 24 hours, VRE 2 (VRE; [4]): 128 µg/mL; MIC (μg/ml) at 24 hours, MRSA 1 (MRSA; [5]): 8 µg/mL; MIC (μg/ml) at 24 hours, MRSA 2 (MRSA; [6]): 16 µg/mL; MIC (μg/ml) at 24 hours, P. aeruginosa (Pseudomonas aeruginosa; duplicate lines per compound): >128 µg/mL |
| CN(C)c1ccc(C=NNC(=N)NN=Cc2ccc(N(C)C)cc2)cc1.Cl [NCL113] | – | – | – | – | – | – | – | – | – | – | – | – | – | 12 µg/mL | greatest activity | greatest activity | 12 µg/mL | 12 µg/mL | MIC (μg/ml) at 24 hours, E. coli (Escherichia coli; duplicate lines per compound): >128 µg/mL; MIC (μg/ml) at 24 hours, VRE 1 (VRE; [3]): 8 µg/mL; MIC (μg/ml) at 24 hours, VRE 2 (VRE; [4]): 16 µg/mL; MIC (μg/ml) at 24 hours, MRSA 1 (MRSA; [5]): 16 µg/mL; MIC (μg/ml) at 24 hours, MRSA 2 (MRSA; [6]): 8 µg/mL; MIC (μg/ml) at 24 hours, P. aeruginosa (Pseudomonas aeruginosa; duplicate lines per compound): >128 µg/mL |
| Cc1ccc(/C=N/Nc2cc(N/N=C/c3ccc(C)cc3)nc(N)n2)cc1 [NCL195, 4,6-bis(2-((E)-4-methylbenzylidene)hydrazinyl)pyrimidin-2-amine] | > 128 µg/mL | 4 µg/mL (≈ 11.1 µM) | 2 µg/mL (≈ 5.56 µM) | 4 µg/mL (≈ 11.1 µM) | 2 µg/mL (≈ 5.56 µM) | 2 µg/mL (≈ 5.56 µM) | 2 µg/mL (≈ 5.56 µM) | 2 µg/mL (≈ 5.56 µM) | > 128 µg/mL | 2 µg/mL (≈ 5.56 µM) | – | – | – | 2.75 µg/mL | greatest activity | greatest activity | – | – | MIC (VRE; [9]): 3.5 µg/mL (≈ 9.74 µM) |
| Nc1nc(N/N=C/c2ccccc2O)cc(N/N=C/c2ccccc2O)n1 [NCL202] | – | – | – | 8 µg/mL (≈ 22 µM) | 8 µg/mL (≈ 22 µM) | – | – | – | – | 8 µg/mL (≈ 22 µM) | >128 µg/mL | 8 µg/mL (≈ 22 µM) | >128 µg/mL | 9 µg/mL | greatest activity | greatest activity | 10 µg/mL | 8 µg/mL | – |
| Cl.Cl.Nc1nc(N/N=C/C2CCCCC2)cc(N/N=C/C2CCCCC2)n1 [NCL203] | – | – | – | 32 µg/mL | 64 µg/mL | – | – | – | – | 32 µg/mL | >128 µg/mL | 32 µg/mL and 64 µg/mL | >128 µg/mL | 44 µg/mL | greatest activity | greatest activity | – | – | – |
| Cl.N=C(N/N=C/c1ccc(Cl)cc1F)N/N=C/c1ccc(Cl)cc1F [NCL216] | – | – | – | 4 µg/mL | 2 µg/mL | – | – | – | – | 2 µg/mL and 4 µg/mL | >128 µg/mL | 2 µg/mL | >128 µg/mL | 2.75 µg/mL | greatest activity | greatest activity | 2.5 µg/mL | 3 µg/mL | – |
| C/C(=N\NC(=N)N/N=C(\C)c1ccc(C)cc1)c1ccc(C)cc1.Cl [NCL217] | > 128 µg/mL | 2 µg/mL | 4 µg/mL | – | – | 4 µg/mL | 4 µg/mL | 4 µg/mL | > 128 µg/mL | – | – | – | – | 3.5 µg/mL | greatest activity | greatest activity | – | – | MIC (VRE; [9]): 3 µg/mL |
| CC1(C)S[C@@H]2[C@H](NC(=O)Cc3ccccc3)C(=O)N2[C@H]1C(=O)O [Penicillin G] | – | – | – | – | – | – | – | – | – | – | – | – | – | – | – | – | – | – | FICI [2]: 1 and 0.625; Antibiotic MIC Alone [2]: 0.125 µg/mL and 0.25 µg/mL; Antibiotic MIC With NCL812 [2]: 0.062 µg/mL and 0.031 µg/mL; Result (interaction with NCL812) [2]: NE (No effect (NE) was defined as 0.5<FICI<4) |
| Cc1cc(NS(=O)(=O)c2ccc(N)cc2)no1 [Sulfamethoxazole] | – | – | – | – | – | – | – | – | – | – | – | – | – | – | – | – | – | – | FICI [2]: 0.75 and 1; FIC1 ([2]; MIC of antibiotic in combination with NCL812/MIC of antibiotic alone): 0.5; Antibiotic MIC Alone [2]: 8 µg/mL; Antibiotic MIC With NCL812 [2]: 4 µg/mL; Result (interaction with NCL812) [2]: NE (No effect (NE) was defined as 0.5<FICI<4) |

Continued, in another order:

| MIC (Escherichia coli) | MIC (VRE; [7]) | MIC (VRE; [8]) | MIC (μg/ml) at 24 hours, VRE 2 (VRE; VRE 2, 24 hours) | MIC (μg/ml) at 24 hours, MRSA 2 (MRSA; MRSA 2, 24 hours) | MIC (MRSA; [10]) | MIC (MRSA; [11]) | MIC (MRSA; [12]) | MIC (Pseudomonas aeruginosa) | MIC (μg/ml) at 24 hours, MRSA 1 (MRSA; MRSA 1, 24 hours) | MIC (μg/ml) at 24 hours, E. coli (Escherichia coli) | MIC (μg/ml) at 24 hours, VRE 1 (VRE; VRE 1, 24 hours) | MIC (μg/ml) at 24 hours, P. aeruginosa (Pseudomonas aeruginosa) | Structure (SMILES) | M + R [1] | activity against VRE among analogues (VRE) | activity against MRSA among analogues (MRSA) | MRSA (MRSA; bioassay ranking) | VRE (VRE; bioassay ranking) | other results |
| --- | --- | --- | --- | --- | --- | --- | --- | --- | --- | --- | --- | --- | --- | --- | --- | --- | --- | --- | --- |
| > 128 µg/mL | 4 µg/mL (≈ 8.18 µM) | 4 µg/mL (≈ 8.18 µM) | 8 µg/mL (≈ 16.4 µM) | 4 µg/mL (≈ 8.18 µM) | 2 µg/mL (≈ 4.09 µM) | 2 µg/mL (≈ 4.09 µM) | 2.5 µg/mL (≈ 5.11 µM) | > 128 µg/mL | – | – | – | – | Nc1nc(N/N=C/c2ccc(Br)cc2)cc(N/N=C/c2ccc(Br)cc2)n1 [NCL193] | 3.75 µg/mL | greatest activity | greatest activity | – | – | MIC (VRE; [9]): 5 µg/mL (≈ 10.2 µM) |
| – | – | – | 8 µg/mL (≈ 22 µM) | 8 µg/mL (≈ 22 µM) | – | – | – | – | 8 µg/mL (≈ 22 µM) | >128 µg/mL | 8 µg/mL and 4 µg/mL | >128 µg/mL | Nc1nc(N/N=C/c2cccc(O)c2)cc(N/N=C/c2cccc(O)c2)n1 [NCL197] | 7.5 µg/mL | greatest activity | greatest activity | 8 µg/mL | 7 µg/mL | – |
| – | – | – | 4 µg/mL and 8 µg/mL | 8 µg/mL | – | – | – | – | 8 µg/mL and 16 µg/mL | >128 µg/mL | 2 µg/mL and 4 µg/mL | >128 µg/mL | CC(=NNC(=N)NN=C(C)c1ccc(Cl)cc1F)c1ccc(Cl)cc1F.Cl [NCL215] | 7.25 µg/mL | greatest activity | greatest activity | 10 µg/mL | 4.5 µg/mL | – |
| > 128 µg/mL | 16 µg/mL | 16 µg/mL | – | – | 2 µg/mL | 2 µg/mL | 2 µg/mL | > 128 µg/mL | – | – | – | – | C/C(=N\NC(=N)N/N=C(\C)c1ccc(C(C)(C)C)cc1)c1ccc(C(C)(C)C)cc1.Cl [NCL219] | 9 µg/mL | greatest activity | greatest activity | – | – | MIC (VRE; [9]): 16 µg/mL |
| – | – | – | 32 µg/mL (≈ 87.1 µM) | 16 µg/mL (≈ 43.6 µM) | – | – | – | – | 16 µg/mL (≈ 43.6 µM) | >128 µg/mL | 32 µg/mL (≈ 87.1 µM) | >128 µg/mL | Nc1nc(N/N=C/c2ccc(F)cc2)cc(N/N=C/c2ccc(F)cc2)n1 [NCL220] | 24 µg/mL | greatest activity | greatest activity | 16 µg/mL | 32 µg/mL | – |
| > 128 µg/mL | 64 µg/mL (≈ 137 µM) | 64 µg/mL (≈ 137 µM) | – | – | 4 µg/mL (≈ 8.56 µM) | 2 µg/mL (≈ 4.28 µM) | 3 µg/mL (≈ 6.42 µM) | > 128 µg/mL | – | – | – | – | Nc1nc(N/N=C/c2ccc(C(F)(F)F)cc2)cc(N/N=C/c2ccc(C(F)(F)F)cc2)n1 [NCL221] | 33.5 µg/mL | greatest activity | greatest activity | – | – | – |
